Where “and” joins values, the source holds several entries; their conditions need not be identical. Equal values may be shown once.
Legend:
Assay type in all cases: cell-based
[1] = system: ICAM production by human skin fibroblasts; test: Fibroblast ICAM-1 assay (PMA-induced)
Protocol: Intracellular adhesion molecules (ICAM) and PEG2 production by human skin fibroblasts can be induced by the inflammatory stimulus PMA (phorbal myristate acetate). PMA represents an external stressor which induces oxidative stress and inflammatory responses in cells.
Primary human foreskin fibroblasts at passage 2 (P2) were seeded into 96-well plates at 10000 cells/well and maintained for 24 hours in an atmosphere of 5% carbon dioxide in Dulbeccos Modified Eagles Medium (DMEM) supplemented with 10% foetal calf serum. The test substances as indicated in the table 2 below were added to fresh cell media (DMEM, supplemented with 10% foetal calf serum) in dimethylsulphoxide and ethanol final concentration<1%) in triplicate and incubated for a further 24 hours. Phorbal myristate acetate (PMA) (Sigma) was added 10 nM to the media and the cells incubated for a further 24 hours. […] The fibroblasts/media were then analysed as described below immediately or snap frozen in liquid nitrogen and stored at −70° C. for future analysis. The cells were then counted and data from the dot-blot analysis subsequently standardised to cell number.
Media were discarded and cells washed with Dulbecco PBS. To the washed cells, 150 μl 0.1% Triton X-100 (Sigma) was added for 3 minutes to extract ICAM from cell membrane. The extracts were transferred to Eppendoff centrifuge tubes and centrifuged at 1000 g for 2 min to remove cell debris. A volume of 100 μl supernatant was used for ICAM assay. The soluble ICAM-1 was assessed with commercially available immunoenzymometric assay kit (R&D Systems). Concentrations of ICAM-1 in the samples were determined based on parallel running standard curve.

[2] = system: decorin synthesis in human dermal fibroblasts; test: Dot blot assay for decorin protein in dermal fibroblast conditioned medium
Protocol: (§1) Primary human foreskin fibroblasts at passage 2 (P2) were seeded into 12-well plates at 10000 cells/cm^2 and maintained for 24 hours in an atmosphere of 5% carbon dioxide and 4% oxygen in Dulbeccos Modified Eagles Medium (DMEM) supplemented with 10% foetal calf serum. After this time the cells were washed with serum free DMEM and then incubated in fresh serum free DMEM for a further 60 hours. The fibroblast monolayers were then washed again with serum free DMEM. Test reagents and vehicle controls were added to the cells in triplicate in a final volume of 0.4 ml/well fresh serum free DMEM and incubated for a further 24 hours. This fibroblast conditioned medium was either analysed immediately or snap frozen in liquid nitrogen and stored at −70° C. for future analysis. The cells were then counted and data from the dot-blot analysis subsequently standardised to cell number.
(§2) Samples of conditioned medium from dermal fibroblasts treated with vehicle (as a control) or test reagents were supplemented with 20 mM dithiothreitol (1:10 dilution of 200 mM stock solution) and 0.1% sodium dodecylsulphate (1:100 dilution of 10% stock solution), mixed well and then incubated at 75° C. for 2 minutes. A standard for the assay was generated by serial dilution of neat fibroblast conditioned medium from fibroblasts seeded at 10000 cells/cm^2 in a 175 cm^2 flask and maintained in serum free DMEM as described above.
Assay samples were subsequently applied in triplicate to a prewetted sheet of Immobilon-P transfer membrane using the 96-well Bio-Dot Apparatus from Bio-Rad as described in the manufacturers guidelines. Approximately 200 μl of medium was applied per well. The medium was allowed to filter through the membrane under gravity (30 minutes) after which the membrane was washed twice with PBS (200 μl). These PBS washes were allowed to filter through the membrane under gravity (2×15 minutes). The Bio-Dot apparatus was then attached to a vacuum manifold and a third and final PBS wash carried out under suction. The apparatus was disassembled, the membrane removed and quickly cut as required before being placed in blocking buffer overnight at 4° C. Membranes prepared for decorin analysis were blocked with 3% (w/v) BSA/0.1% (v/v) Tween 20 in PBS, whilst those for procollagen-I analysis were blocked with 5% (w/v) non fat dried milk powder/0.05% Tween 20 in PBS.
Following this the Immobilon strips were again washed with TBS/Tween 20 (3×5 minutes) before being allowed to dry in air at room temperature. The dried membranes were wrapped in cellophane and exposed to a Molecular Dynamics storage phosphor screen for 16-18 hours. At the end of this time the exposed screen was scanned by a phosphorimager (Molecular Dynamics Phosphorimager SF) using ImageQuant™ software. Dot intensity was assessed by computer-assisted image analysis using the quantification tools in ImageQuant™, standardised to cell number and the effects of various test reagents on decorin and procollagen-I synthesis were determined relative to a vehicle treated control value of 100 arbitrary units.

[3] = system: procollagen-I synthesis in human dermal fibroblasts; test: Dot blot assay for procollagen-I protein in dermal fibroblast conditioned medium; conditions: vehicle control = 100
Protocol: as §1, §2
Assay samples were subsequently applied in triplicate to a prewetted sheet of Immobilon-P transfer membrane using the 96-well Bio-Dot Apparatus from Bio-Rad as described in the manufacturers guidelines. Approximately 200 μl of medium was applied per well. The medium was allowed to filter through the membrane under gravity (30 minutes) after which the membrane was washed twice with PBS (200 μl). These PBS washes were allowed to filter through the membrane under gravity (2×15 minutes). The Bio-Dot apparatus was then attached to a vacuum manifold and a third and final PBS wash carried out under suction. The apparatus was disassembled, the membrane removed and quickly cut as required before being placed in blocking buffer overnight at 4° C. […]
Following this the Immobilon strips were again washed with TBS/Tween 20 (3×5 minutes) before being allowed to dry in air at room temperature. […] Dot intensity was assessed by computer-assisted image analysis using the quantification tools in ImageQuant™, standardised to cell number and the effects of various test reagents on decorin and procollagen-I synthesis were determined relative to a vehicle treated control value of 100 arbitrary units.

[4] = system: PGE2 production by human skin fibroblasts; test: Fibroblast PGE2 assay (PMA-induced); conditions: PMA 10 nM + genistein 1 μM, read-out: % of Inhibition Of Fibroblast PGE2 Levels
Protocol: Primary human foreskin fibroblasts at passage 2 (P2) were seeded into 96-well plates at 10000 cells/well and maintained for 24 hours in an atmosphere of 5% carbon dioxide in Dulbeccos Modified Eagles Medium (DMEM) supplemented with 10% foetal calf serum. The test substances as indicated in the table 2 below were added to fresh cell media (DMEM, supplemented with 10% foetal calf serum) in dimethylsulphoxide and ethanol final concentration<1%) in triplicate and incubated for a further 24 hours. Phorbal myristate acetate (PMA) (Sigma) was added 10 nM to the media and the cells incubated for a further 24 hours. […] The fibroblasts/media were then analysed as described below immediately or snap frozen in liquid nitrogen and stored at −70° C. for future analysis.
Volumes of 50 μl culture medium were taken for PGE2 assay after gently shaking the culture plate. PGE2 levels in the medium were determined with a Biotrak PGE2 immunoassay kit (Amersham, UK). The assay is based on the competition between unlabelled PGE2 in the sample and a fixed quantity of horseradish peroxidase labelled PGE2 for a limited amount of fixed PGE2 specific antibody. Concentrations of unlabelled sample PGE2 are determined according to a standard curve which was obtained at the same time.

Compound: O=C(O[C@@H]1Cc2c(O)cc(O)cc2O[C@@H]1c1cc(O)c(O)c(O)c1)c1cc(O)c(O)c(O)c1 [EGCG, epigallocatechin gallate]
- % of inhibition of fibroblast ICAM production ([1]; PMA 10 nM + EGCG 10 μM): 14.4%
- Decorin ([2]; 0.005 μg/ml EGCG, vehicle control = 100): 118.4%
- Decorin ([2]; 0.05 μg/ml EGCG, vehicle control = 100): 111.7%
- Decorin ([2]; 0.5 μg/ml EGCG, vehicle control = 100): 120.2%

Compound: CCCCCCCCCCC/C=C\CCCCC(=O)O [PA, petroselinic acid]
- Procollagen-I ([3]; 0.01 μM PA): 117.34%
- Procollagen-I ([3]; 0.1 μM PA): 90.94%
- Decorin ([2]; 0.01 μM PA, relative to vehicle treated control = 100 arbitrary units, separate experiments): 102.7% and 100.9% and 95.08% and 93.97% and 93.7% and 91.6%
- Decorin ([2]; 0.1 μM PA, vehicle control = 100): 100.3%

Compound: O=c1c(-c2ccc(O)cc2)coc2cc(O)ccc12 [daidzein]
- Procollagen-I ([3]; 0.01 μM daidzein): 96.04%
- Decorin ([2]; 0.01 μM daidzein, vehicle control = 100): 92.83%

Compound: O=C(O)c1cc(O)c(O)c(O)c1 [gallic acid]
- Decorin ([2]; 0.001 μg/ml gallic acid, vehicle control = 100): 96.6%

Compound: O=c1c(-c2ccc(O)cc2)coc2cc(O)cc(O)c12 [genistein]
- inhibition at 1 µM ([1]; Homo sapiens, Skin fibroblast, PMA 10 nM + genistein 1 μM): 30.6%
- Procollagen-I ([3]; 1 μM genistein): 101.74%
- Decorin ([2]; 1 μM genistein, vehicle control = 100): 99.75%
- inhibition at 1 µM [4]: 86.2%

Compound: O=c1c(O)c(-c2ccc(O)c(O)c2)oc2cc(O)cc(O)c12 [quercetin]
- inhibition at 10 µM ([1]; Homo sapiens, Skin fibroblast, PMA 10 nM + quercetin 10 μM): 27.8%
- Decorin ([2]; 1 μM quercetin, vehicle control = 100): 97.60%

— US6455057B1, “Skin care composition” (Elizabeth Arden Co., div. of Conopco, Inc., priority 1999, dated 2002)
